pEC50: −log10 of the molar value.
Key:
EP3 receptor = biological target: T1, EP3 receptor (Homo sapiens, UniProt P43115); assay: agonist activity on human EP3 receptor (intracellular calcium concentration, EP3-Chem1 cells); assay type: cell-based; conditions: agonist activity on the EP3 receptor
T1 construct: expressed in transfected cells; host or cells: EP3-Chem1
T1 sequence (P43115 1-390): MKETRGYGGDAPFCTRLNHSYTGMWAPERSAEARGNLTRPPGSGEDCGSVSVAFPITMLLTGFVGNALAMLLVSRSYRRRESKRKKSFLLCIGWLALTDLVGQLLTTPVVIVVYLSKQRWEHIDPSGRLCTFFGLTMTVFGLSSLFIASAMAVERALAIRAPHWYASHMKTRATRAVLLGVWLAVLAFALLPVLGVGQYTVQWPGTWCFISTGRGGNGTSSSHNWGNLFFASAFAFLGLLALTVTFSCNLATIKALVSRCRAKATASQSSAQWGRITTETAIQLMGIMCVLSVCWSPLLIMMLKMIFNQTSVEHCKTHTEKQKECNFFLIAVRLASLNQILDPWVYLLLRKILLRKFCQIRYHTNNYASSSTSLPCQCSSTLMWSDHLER
Description: (§1) Using CHO cells (EP1-CHO, EP2-CHO, EP3-Chem1, EP4-CHO and IP-CHO) on which various human prostanoid receptors were forcibly expressed, the agonist activity of the test compound on the various prostanoid receptors was examined using the intracellular calcium concentration for EP1 and EP3, and the intracellular cyclic AMP (hereinafter, abbreviated as cAMP) production amount for EP2, EP4 and IP as indices.
The test compound and control substances (PGE2 and iloprost) were dissolved in dimethyl sulfoxide (DMSO) to prepare a 10 mmol/L solution. The prepared 10 mmol/L solution was thawed at the time of use, serially diluted using DMSO, and diluted with a buffer solution 1 for measurement (Hank's balanced salt solution (Thermofischer scientific) containing 1 w/v% human serum albumin (Sigma), 2 µmol/L indomethacin (Sigma), 2.5 mmol/L probenecid, and 10 mmol/L HEPES-NaOH (pH7.4)) or a buffer solution 2 for measurement (D-PBS (Nacalai Tesque) containing 0.1 w/v% human serum albumin, 2 µmol/L diclofenac (Sigma), and 1 mmol/L 3-isobutyl-1-methylxanthine (Sigma)) to perform experiments.

EP1 = biological target: T2, EP1 (Homo sapiens, UniProt P34995); assay: agonist activity on human EP1 receptor (intracellular calcium concentration, EP1-CHO cells); assay type: cell-based
T2 construct: expressed in transfected cells; host or cells: CHO (EP1-CHO)
T2 sequence (P34995 1-402): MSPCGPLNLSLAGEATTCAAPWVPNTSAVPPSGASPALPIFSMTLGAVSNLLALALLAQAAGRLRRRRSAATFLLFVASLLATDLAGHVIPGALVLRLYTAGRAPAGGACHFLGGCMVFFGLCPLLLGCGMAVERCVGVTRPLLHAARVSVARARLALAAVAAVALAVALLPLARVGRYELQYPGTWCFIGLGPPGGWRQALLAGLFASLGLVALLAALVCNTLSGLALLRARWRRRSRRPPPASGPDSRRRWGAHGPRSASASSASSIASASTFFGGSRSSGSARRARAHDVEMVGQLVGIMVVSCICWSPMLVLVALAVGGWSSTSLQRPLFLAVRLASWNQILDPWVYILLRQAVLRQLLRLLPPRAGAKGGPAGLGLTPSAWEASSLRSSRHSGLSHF
How it was run: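 Calcium 6 dye loaded 1 h at room temperature in HBSS with 1% human serum albumin, 2 µmol/L indomethacin, 2.5 mmol/L probenecid, pH 7.4; agonists then added at various concentrations. Intracellular calcium read by fluorescence (ex 480/em 540 nm) in CHO cells expressing human EP1 or Chem1 cells expressing human EP3.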

EP2 = biological target: T3, EP2 (Homo sapiens, UniProt P43116); assay: agonist activity on human EP2 receptor (cAMP production, EP2-CHO cells); assay type: cell-based
T3 construct: expressed in transfected cells; host or cells: CHO (EP2-CHO)
Description: as §1
(§2) The test compound and control substances (PGE2 and iloprost) were dissolved in dimethyl sulfoxide (DMSO) to prepare a 10 mmol/L solution. […]
(§3) On the day of the measurement, EP2-CHO, EP4-CHO, and IP-CHO were obtained by thawing frozen cells. […] The cAMP concentration was measured using a cAMP HTRF HiRange kit (CIS bio International). […] After incubation for 1 hour, time-resolved fluorescence at 620 nm and 660 nm when excited at 340 nm was measured using Synergy Neo (Bioteck), and the ratio (TRF ratio) was determined to calculate the cAMP concentration from the calibration curve.

EP4 = biological target: T4, EP4 (Homo sapiens, UniProt P35408); assay: agonist activity on human EP4 receptor (cAMP production, EP4-CHO cells); assay type: cell-based
T4 construct: expressed in transfected cells; host or cells: CHO (EP4-CHO)
Description: as §1, §2, §3

IP = biological target: T5, IP (Homo sapiens, UniProt P43119); assay: agonist activity on human IP receptor (cAMP production, IP-CHO cells); assay type: cell-based
T5 construct: expressed in transfected cells; host or cells: CHO (IP-CHO)
Description: as §1, §2, §3

[1] = system: rat renal ischemia reperfusion (IR) model; assay: in vivo drug efficacy in rat renal ischemia reperfusion (IR) model; parameters: species or system Crl : CD (SD) rats; conditions: subcutaneous osmotic pump
Description: The effect of the present compound on renal IR damage was evaluated using male rats.
Male Crl : CD (SD) rats aged 3 or 4 weeks were purchased from Charles River Laboratories Japan, and subjected to experiments. Animals were fed ad libitum with FR-2 (Funabashi Farm) at the time of arrival and with solid feed CE-2 (CLEA Japan) for one week before single kidney removal, and watered ad libitum.
After acclimation breeding, the right kidney was removed about 7 days before renal IR treatment. Specifically, the rats were allowed to inhale isoflurane (Mylan) for anesthesia, and administered buprenorphine (Otsuka Pharmaceutical) as an analgesic at 0.01 mg/kg. The right back was incised, the right kidney was removed, and then the incision was sutured.
Renal IR treatment was performed about 7 days after single kidney removal. Specifically, rats were anesthetized by intraperitoneal administration of sodium pentobarbital (Tokyo Chemical Industry) at a dose of 50 mg/kg, and administered buprenorphine as an analgesic at 0.01 mg/kg. The left abdomen was incised, and the renal artery and vein was sandwiched with a clamp (Natsume Seisakusho) to cause ischemia for 35 minutes. During ischemia, the rats were allowed to lie on a heat-retaining plate set at 38°C, and after 35 minutes, the clamp was removed for reperfusion. After visually confirming that blood flow to the kidney was recovered, the incision was sutured. The sham group was a sham-operated group in which neither ischemia nor reperfusion treatment was performed.
Animals were distributed on the day before renal IR treatment such that differences in the mean of the body weight in each group were not biased, and assigned animal numbers.
The compound of Example 7 (test substance) and physiological saline (Otsuka Pharmaceutical) as a vehicle were subcutaneously administered at 5 mL/kg using an injection needle 5 minutes before renal IR treatment. Saline was administered to the sham group in the same test. The administration dose is described in Table 16.
Specifically, the rats were allowed to inhale isoflurane for anesthesia on the day before renal IR treatment, and administered buprenorphine as an analgesic at 0.01 mg/kg. […] The incision was bonded with Dermabond Advanced (Johnson & Johnson). A pump containing a vehicle was also embedded in the sham group in the same test. The administration dose is described in Table 16.
After renal IR treatment, blood was collected through the tail vein on Day1, Day2, and Day3 to obtain serum. In addition, after renal IR treatment, rats were euthanized by exsanguination through the abdominal aorta under isoflurane anesthesia on Day3.
The respective concentrations of serum creatinine (sCre) and blood urea nitrogen (BUN) were measured using an automatic analyzer 7180 (Hitachi High-Tech).

T5 sequence (P43119 whole entry): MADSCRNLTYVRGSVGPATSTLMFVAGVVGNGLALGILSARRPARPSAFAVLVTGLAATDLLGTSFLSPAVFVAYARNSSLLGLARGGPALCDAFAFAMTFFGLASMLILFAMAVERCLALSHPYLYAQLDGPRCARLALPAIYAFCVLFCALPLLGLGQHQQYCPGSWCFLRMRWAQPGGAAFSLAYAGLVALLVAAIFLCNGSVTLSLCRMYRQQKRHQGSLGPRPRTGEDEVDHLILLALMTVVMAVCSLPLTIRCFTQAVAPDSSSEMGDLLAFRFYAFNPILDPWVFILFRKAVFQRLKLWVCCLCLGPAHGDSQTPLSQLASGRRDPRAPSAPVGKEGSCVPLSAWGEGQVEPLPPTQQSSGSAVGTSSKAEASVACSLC
T3 sequence (P43116 whole entry): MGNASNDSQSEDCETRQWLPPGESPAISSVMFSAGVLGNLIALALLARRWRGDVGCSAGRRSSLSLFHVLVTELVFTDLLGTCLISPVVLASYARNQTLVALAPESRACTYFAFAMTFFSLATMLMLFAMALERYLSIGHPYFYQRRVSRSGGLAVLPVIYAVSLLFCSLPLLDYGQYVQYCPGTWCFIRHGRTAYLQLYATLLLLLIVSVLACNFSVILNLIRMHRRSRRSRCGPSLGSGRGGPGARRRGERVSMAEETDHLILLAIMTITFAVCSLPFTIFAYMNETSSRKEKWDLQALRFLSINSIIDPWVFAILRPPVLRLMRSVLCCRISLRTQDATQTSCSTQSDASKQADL
T4 sequence (P35408 whole entry): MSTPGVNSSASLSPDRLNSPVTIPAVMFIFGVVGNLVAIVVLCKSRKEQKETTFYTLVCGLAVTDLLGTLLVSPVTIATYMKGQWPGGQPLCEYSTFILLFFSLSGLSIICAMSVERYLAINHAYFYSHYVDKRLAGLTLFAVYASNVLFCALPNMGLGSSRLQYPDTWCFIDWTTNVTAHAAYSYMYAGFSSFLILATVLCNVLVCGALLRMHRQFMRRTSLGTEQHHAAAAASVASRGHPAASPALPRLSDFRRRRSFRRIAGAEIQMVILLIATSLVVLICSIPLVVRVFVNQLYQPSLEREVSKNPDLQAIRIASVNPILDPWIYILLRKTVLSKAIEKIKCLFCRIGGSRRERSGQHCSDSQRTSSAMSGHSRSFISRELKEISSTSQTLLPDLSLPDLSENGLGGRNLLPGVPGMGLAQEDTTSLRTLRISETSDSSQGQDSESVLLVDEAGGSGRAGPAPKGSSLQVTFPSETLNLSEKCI

pEC50 (EP3 receptor): 7.40
pEC50 (EP1): < 5.00
pEC50 (EP2): < 5.00
pEC50 (EP4): 5.82
pEC50 (IP): < 5.00
Substance: (1R,2R,3aS,10aR)-1-{(1E,3ξ)-3-[1-(2,5-difluorophenyl)cyclobutyl]-3-hydroxy-1-propen-1-yl}-2-hydroxy-2,3,3a,9,10,10a-hexahydro-1H-benzo[b]cyclopenta[f]oxepine-6-carboxylic acid [Example 7-30]
blood urea nitrogen (BUN) concentration mean ([1]; IR 0.3 µg/kg/min, day 1): 96.6
serum creatinine (sCre) concentration mean ([1]; IR 0.3 µg/kg/min, day 1): 1.78
blood urea nitrogen (BUN) concentration mean ([1]; IR 0.3 µg/kg/min, day 2): 94.3
serum creatinine (sCre) concentration mean ([1]; IR 0.3 µg/kg/min, day 2): 1.42
blood urea nitrogen (BUN) concentration mean ([1]; IR 0.3 µg/kg/min, day 3): 79.8
serum creatinine (sCre) concentration mean ([1]; IR 0.3 µg/kg/min, day 3): 1.00
blood urea nitrogen (BUN) concentration mean ([1]; IR 3.0 µg/kg/min, day 1): 89.5
serum creatinine (sCre) concentration mean ([1]; IR 3.0 µg/kg/min, day 1): 1.45
blood urea nitrogen (BUN) concentration mean ([1]; IR 3.0 µg/kg/min, day 2): 81.8
serum creatinine (sCre) concentration mean ([1]; IR 3.0 µg/kg/min, day 2): 1.10
blood urea nitrogen (BUN) concentration mean ([1]; IR 3.0 µg/kg/min, day 3): 70.7
serum creatinine (sCre) concentration mean ([1]; IR 3.0 µg/kg/min, day 3): 0.83
